This is an account of results in paper PMC8944662 (Proceedings of the National Academy of Sciences of the …, 2022).

This assay concerns the target NfnL (isolated large subunit of NADH-dependent ferredoxin-NADP+ oxidoreductase I) (Pyrococcus furiosus, UniProt Q8U195). The experiment in a line: intrinsic Trp/Tyr fluorescence quenching titration, Morrison fit. Type of assay: binding.

Sequence of NfnL (isolated large subunit of NADH-dependent ferredoxin-NADP+ oxidoreductase I) (Q8U195 whole entry): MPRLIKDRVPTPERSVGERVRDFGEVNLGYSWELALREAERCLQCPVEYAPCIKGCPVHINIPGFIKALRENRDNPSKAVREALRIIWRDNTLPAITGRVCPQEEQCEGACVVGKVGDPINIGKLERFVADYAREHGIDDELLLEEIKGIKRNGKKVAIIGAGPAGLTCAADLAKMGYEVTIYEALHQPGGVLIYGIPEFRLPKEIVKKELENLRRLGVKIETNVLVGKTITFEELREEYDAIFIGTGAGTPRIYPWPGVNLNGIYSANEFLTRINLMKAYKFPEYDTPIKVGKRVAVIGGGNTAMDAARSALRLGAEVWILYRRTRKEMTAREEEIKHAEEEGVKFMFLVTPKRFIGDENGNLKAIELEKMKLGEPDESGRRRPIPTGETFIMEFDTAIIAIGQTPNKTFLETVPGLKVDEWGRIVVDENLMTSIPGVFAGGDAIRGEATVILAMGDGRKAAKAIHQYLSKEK

A word on the Kd: it is the equilibrium constant for the complex coming apart. A high value points to a looser complex. Compound `NC(=O)C1=CN([C@@H]2O[C@H](COP(=O)(O)OP(=O)(O)OC[C@H]3O[C@@H](n4cnc5c(N)ncnc54)[C@H](OP(=O)(O)O)[C@@H]3O)[C@@H](O)[C@H]2O)C=CC1` [NADPH] returned a Kd of 3 ± 0.4 µM. Next, `NC(=O)c1ccc[n+]([C@@H]2O[C@H](COP(=O)(O)OP(=O)(O)OC[C@H]3O[C@@H](n4cnc5c(N)ncnc54)[C@H](OP(=O)(O)O)[C@@H]3O)[C@@H](O)[C@H]2O)c1` [NADP^+]: 3 ± 0.4 µM.
